Reference: patent US20130096160A1, “ARYLTHIAZOLYL PIPERIDINES AND RELATED COMPOUNDS AS MODULATORS OF SURVIVAL MOTOR NEURON (SMN) PROTEIN PRODUCTION” (Secretary, Department of Health and Human Services, priority 2010, published 2013)

Tested on: SMN2-luciferase reporter
Test: SMN2-luciferase reporter qHTS assay
Format: cell-based, human
Design: key to Curve Class: A curve class of 1.1 is a full agonist/antagonist; a curve class of 4 indicates the compound is inactive
Details: for Curve Class: agonist/antagonist character of the concentration-response, lower values = more significant concentration-response; for Increased SMN2 activity: percent increase (or decrease) in SMN2 levels compared to control in which no test compound is added
Text: A cell-based quantitative high throughput screening (qHTS) assay is used to identify compounds able to increase SMN production. The assay uses a SMN2-luciferase reporter to determine if exon 7 of the SMN gene is expressed, which correlates with increased full-length SMN production from the SMN2 gene. As controls, a homologue SMN1-luciferase reporter cell line looks for variations in expression of the SMN1 gene and a cell line with just the luciferase reporter looks at the capacity of the compounds to inhibit luciferase. In addition, increments in SMN production by lead compounds were confirmed by Western-Blot analysis using SMA patient fibroblasts.
For the qHTS assay, concentration-response profiles are generated at the primary-screen level for each library compound to minimize the number of false positives. A dilution series consisting of seven points separated by five-fold concentration differences is prepared for each compound, yielding a concentration series that spans a range of about four orders of magnitude, for example from a high concentration of 50 micromolar to a low concentration of 3.2 nanomolar and providing adequate data for fitting to a Hill equation. For the assay, the SMN2 reporter cell line was plated at a density of ˜2000 cells/well in complete media (phenol red free DMEM, 10% detacl calf serum, and 1× pen/strep), in 1536 well white solid bottom tissue culture treated plates (Greiner). Cells were allowed to adhere and recover at 37 C in 5% CO2 for 10-12 hours. Compounds were added to the plates by a Pintool (Kalypsys) at a volume of 23 nl/well. Cells were incubated in the presence of compounds for 2 days at 37 C in 5% CO2. In order to quantify luciferase reporter levels, 3 ul/well of OneGlo (Promega) was added to each well and incubated at room temperature for 10 minutes. Luminescence from the reporter in each well is measured using a Viewlux CCD based imager (Perkin Elmer) with an integration time of 30 seconds and a binning of 2× in luminescence mode. Sodium butyrate was used as the positive control compound for luciferase induction and a column of 32 wells of 9.2 mM compound on each plate was used to monitor assay performance.
The SMN reporters used herein are modified from those previously described (M. L. Zhang, C. L. Lorson, E. J. Androphy and J. Zhou, An in vivo reporter system for measuring increased inclusion of exon 7 in SMN2 mRNA: potential therapy of SMA, Gene Ther 8 (2001), pp. 1532-1538.)
The sequence of the SMN1 reporter vector used herein is given in SEQ ID NO.:1, while that of the SMN2 reporter vector is given in SEQ ID NO.:2.
Each of the SMN reporters is constructed from three separate DNA fragments: (1) an SMN promotor sequence from the transcriptional reporter p 4.0T (SMN1) or p3.4C (SMN2) described in Monani, et al. Biochimica et Biophysica Acta 1445 (1999) 330-336; (2) a modification of the firefly luciferase splicing reporter for SMN1 or SMN2 described by Zhang et al; and (3) a 744 bp SMN cDNA fragment.
The 3.7 kB SMN1 promoter fragment is obtained by restriction of p4.0T with BglII and SacII. A 3.4 kB SMN2 promoter fragment is obtained by restriction of p3.4C with KpnI and SacII; a 300 bp BglII/KpnI fragment from p4.0T is then added to the 3.4 kB SMN2 promoter fragment to yield the final 3.7 kB SMN2 promoter fragment.
The modified SMN1 and SMN2 firefly luciferase splicing reporters are obtained by removing 4 kB of intron 6 in the original reporter system by restriction with SmaI/Swa followed by religation of the reporter. A 4 kB luciferase splicing reporter is then obtaind by digestion with XhoI and NotI.
Ths SMN cDNA fragment is obtained by generating the productof a polymerase chain reaction (PCR) on a cDNA preparation using […] (SEQ ID NO:3) as the forward primer and Tatctcgagtggtccagaaggaaatggaggcagcc (SEQ ID NO:4) as the reverse primer. The PCR product is then digested with XhoI and SacII. […]

Row | Compound | Curve Class | Increased SMN2 activity [%]
1 | CC(=O)NC1CCN(c2nc(-c3ccc(Br)cc3)cs2)CC1 [Example 113, N-(1-(4-(4-Bromophenyl)Thiazol-2-yl)Piperidin-4-yl)Acetamide] | −1.4 | −56.62
2 | NC(=O)N1CCN(c2nc(-c3ccc(Br)cc3)cs2)CC1 [Example 118, 4-(4-(4-Bromophenyl)Thiazol-2-yl)Piperazine-1-Carboxamide] | 2.1 | 88.79
3 | NC(=O)C1CCN(c2ncc(-c3ccc4c(c3)OCCO4)s2)CC1 [Example 120, 1-(5-(2,3-Dihydrobenzo[B][1,4]Dioxin-6-yl)Thiazol-2-yl)Piperidine-4-Carboxamide] | 1.1 | 424.6
4 | NC(=O)C1CCN(c2ncc(-c3cccc(F)c3)s2)CC1 [Example 121, 1-(5-(3-Fluorophenyl)Thiazol-2-yl)Piperidine-4-Carboxamide] | 1.1 | 601.5
5 | NC(=O)C1CCN(c2ncc(-c3ccc(Cl)cc3)s2)CC1 [Example 122, 1-(5-(4-Chlorophenyl)Thiazol-2-yl)Piperidine-4-Carboxamide] | 1.1 | 498.3
6 | NC(=O)C1CCN(c2ncc(-c3ccc4c(c3)OCO4)s2)CC1 [Example 125, 1-(5-(Benzo[D][1,3]Dioxol-5-yl)Thiazol-2-yl)Piperidine-4-Carboxamide] | 1.1 | 589.875
7 | Cc1ccc(-c2ccnc(N3CCC(C(N)=O)CC3)n2)cc1 [Example 126, 1-(4-P-Tolylpyrimidin-2-yl)Piperidine-4-Carboxamide] | 1.1 | 444.6
8 | CC(C)Oc1cccc(-c2ccnc(N3CCC(C(N)=O)CC3)n2)c1 [Example 127, 1-(4-(3-Isopropoxyphenyl)Pyrimidin-2-yl)Piperidine-4-Carboxamide] | 1.1 | 298.225
9 | NC(=O)C1CCN(c2nccc(-c3ccc4c(c3)OCCCO4)n2)CC1 [Example 128, 1-(4-(3,4-Dihydro-2H-Benzo[B][1,4]Dioxepin-7-yl)Pyrimidin-2-yl)Piperidine-4-Carboxamide] | 1.1 | 234.2
10 | NC(=O)C1CCN(c2nccc(-c3ccc4c(c3)OCCO4)n2)CC1 [Example 129, 1-(4-(2,3-Dihydrobenzo[B][1,4]Dioxin-6-yl)Pyrimidin-2-yl)Piperidine-4-Carboxamide] | 1.1 | 364.3
11 | NC(=O)C1CCN(c2nnc(-c3ccc4c(c3)OCCCO4)s2)CC1 [Example 130, 1-(5-(3,4-Dihydro-2H-Benzo[B][1,4]Dioxepin-7-yl)-1,3,4-Thiadiazol-2-yl)Piperidine-4-Carboxamide] | 1.1 | 257.1
12 | CN(C)c1cccc(-c2nnc(N3CCC(C(N)=O)CC3)s2)c1 [Example 132, 1-(5-(3-(Dimethylamino)Phenyl)-1,3,4-Thiadiazol-2-yl)Piperidine-4-Carboxamide] | 1.1 | 448.5
13 | Cc1ccc(-c2nnc(N3CCC(C(N)=O)CC3)s2)cc1 [Example 133, 1-(5-P-Tolyl-1,3,4-Thiadiazol-2-yl)Piperidine-4-Carboxamide] | 1.2 | 54
14 | c1c[nH]c(C2CCN(c3ncc(-c4ccc5c(c4)OCCCO5)s3)CC2)n1 [Example 135, 2-(4-(1H-Imidazol-2-yl)Piperidin-1-yl)-5-(3,4-Dihydro-2H-Benzo[B][1,4] Dioxepin-7-yl)Thiazole] | 1.1 | 129.4
15 | CN(C)c1cccc(-c2cnc(N3CCC(c4ncc[nH]4)CC3)s2)c1 [Example 136, 3-(2-(4-(1H-Imidazol-2-yl)Piperidin-1-yl)Thiazol-5-yl)-N,N-Dimethylaniline] | 1.1 | 188.2
16 | NC(=O)C1CCN(c2ncc(-c3cccc(N4CCCC4)c3)s2)CC1 [Example 137, 1-(5-(3-(Pyrrolidin-1-yl)Phenyl)Thiazol-2-yl)Piperidine-4-Carboxamide] | 1.1 | 685.1
17 | NC(=O)C1CCN(c2ncc(-c3cccc(N4CCCCC4)c3)s2)CC1 [Example 138, 1-(5-(3-(Piperidin-1-yl)Phenyl)Thiazol-2-yl)Piperidine-4-Carboxamide] | 1.1 | 565.6
18 | NC(=O)C1CCN(c2ncc(-c3cccc(N4CCOCC4)c3)s2)CC1 [Example 139, 1-(5-(3-Morpholinophenyl)Thiazol-2-yl)Piperidine-4-Carboxamide] | 1.1 | 275.2
19 | CC(=O)C1CCN(c2ncc(-c3cccc(N(C)C)c3)s2)CC1 [Example 141, 1-(1-(5-(3-(Dimethylamino)Phenyl)Thiazol-2-yl)Piperidin-4-yl)Ethanone] | 1.1 | 224.6
20 | NC(=O)C1CCN(c2cc(-c3ccc4c(c3)OCCCO4)ncn2)CC1 [Example 142, 1-(6-(3,4-Dihydro-2H-Benzo[B][1,4]Dioxepin-7-yl)Pyrimidin-4-yl)Piperidine-4-Carboxamide] | 1.1 | 211.1
21 | CN(C)c1cccc(-c2cc(N3CCC(C(N)=O)CC3)ncn2)c1 [Example 143, 1-(6-(3-(Dimethylamino)Phenyl)Pyrimidin-4-yl)Piperidine-4-Carboxamide] | 2.1 | 81.27
22 | NC(=O)C1CCN(c2ncnc(-c3ccc4c(c3)OCCCO4)n2)CC1 [Example 144, 1-(4-(3,4-Dihydro-2H-Benzo[B][1,4]Dioxepin-7-yl)-1,3,5-Triazin-2-yl)Piperidine-4-Carboxamide] | 1.1 | 186.2
23 | CN(C)c1cccc(-c2ncnc(N3CCC(C(N)=O)CC3)n2)c1 [Example 145, 1-(4-(3-(Dimethylamino)Phenyl)-1,3,5-Triazin-2-yl)Piperidine-4-Carboxamide] | 1.1 | 199.9
24 | CCOC(=O)C1CCN(c2ncc(-c3ccc4c(c3)OCCCO4)s2)CC1 [Example 146, Ethyl 1-(5-(3,4-Dihydro-2H-Benzo[B][1,4]Dioxepin-7-yl)Thiazol-2-yl)Piperidine-4-Carboxylate] | 1.1 | 319.6
25 | CN(C)c1cccc(-c2nc(N3CCC(C(N)=O)CC3)ncc2F)c1 [Example 149, 1-(4-(3-(Dimethylamino)Phenyl)-5-Fluoropyrimidin-2-yl)Piperidine-4-Carboxamide] | 1.1 | 373.2
26 | COc1ccc(-c2cnc(N3CCC(C(N)=O)CC3)s2)cc1OC [Example 150, 1-(5-(3,4-Dimethoxyphenyl)Thiazol-2-yl)Piperidine-4-Carboxamide] | 1.1 | 209.7
27 | CN(C)c1cccc(-c2ncc(F)c(N3CCC(C(N)=O)CC3)n2)c1 [Example 152, 1-(2-(3-(Dimethylamino)Phenyl)-5-Fluoropyrimidin-4-yl)Piperidine-4-Carboxamide] | 1.1 | 141.8
28 | NC(=O)C1CCN(c2ncc(-c3ccc4c(c3)OC(F)(F)O4)s2)CC1 [Example 153, 1-(5-(2,2-Difluorobenzo[D][1,3]Dioxol-5-yl)Thiazol-2-yl)Piperidine-4-Carboxamide] | 1.1 | 598.4
